Results published in patent publication US12377071B2, “Methods of treating conditions related to the S1P1 receptor” (Arena Pharmaceuticals, Inc., priority 2015, dated 2025).
“Also recorded” adds a separate entry of the source. Counter-ions that a name gives are not always drawn.

Tests used:
[1] = clinical trials; cited from earlier work
[2] = test system: lymphocytes; assay: Multiple ascending dose study: lymphocyte counts, safety population; assay type: in vivo, human; conditions: for Lymphocytes, On Treatment Mean / Lymphocytes, Percent Change from Baseline, Mean / Lymphocytes, Percent Change from Baseline, Median / Lymphocytes, Percent Change from Baseline, Min, Max: day 21
Protocol: (§1) A randomized, double-blind, placebo-controlled, sequential, ascending, multiple dose study to assess the safety, tolerability, and pharmacokinetics of the L-arginine salt of Compound 1 administered to healthy adult subjects was conducted. This study was designed to evaluate the safety, tolerability, pharmacokinetics, and pharmacodynamics of the L-arginine salt of Compound 1.
(§2) Cohort 1 was dosed with 0.7 mg (by administering two 0.35 mg formulations) for 21 days. Cohort 2 was dosed with 1.35 mg (by administering both a 0.35 mg formulation and a 1 mg formulation) for 21 days. Cohort 3 was dosed with 2.0 mg for 21 days. Cohort 4 was dosed with 0.35 mg for 7 days and then with 2.0 mg for 14 days. Cohort 5 was dosed with 0.5 for 7 days and then with 3.0 mg (by administering both a 1 mg formulation and a 2 mg formulation) for 14 days.

[3] = test system: healthy adult subjects; assay: Multiple ascending dose study: systolic BP, safety population; assay type: in vivo, human; conditions: Day 1 to Day 28
Protocol: as §1, §2
(§3) The following safety assessments were conducted: physical examinations with ophthalmoscopy, clinical laboratory tests (serum chemistry, coagulation, and urinalysis), vital signs, continuous telemetry (12 lead ECG), safety ECGs, pulmonary function testing (PFT), serum protein electrophoresis (SPEP) and serum immunoelectrophoresis (IEP), and adverse event reporting.

[4] = test system: healthy adult subjects; assay: Multiple ascending dose study: safety assessments and adverse events
Protocol: as §3

[5] = test system: healthy adult subjects; assay: Multiple ascending dose study: diastolic BP, safety population; assay type: in vivo, human; conditions: Day 1 to Day 28
Protocol: as §1, §2, §3

[6] = test system: healthy adult subjects; assay: Multiple ascending dose study: heart rate, safety population; assay type: in vivo, human; conditions: Day 1 to Day 28
Protocol: as §1, §2, §3

[7] = test system: healthy adult subjects; assay: Multiple ascending dose study: QTc, safety population; assay type: in vivo, human; conditions: Day 1 to Day 23
Protocol: as §1, §2, §3

[8] = 0.35 mg for 7 days then 2.0 mg for 14 days
[9] = 0.5 mg for 7 days then 3.0 mg for 14 days

CCCCCCCCc1ccc(CCC(N)(CO)CO)cc1 [FTY720, fingolimod]
Adverse event [1]: transient asymptomatic bradycardia

O=C(O)C[C@H]1CCc2c1[nH]c1ccc(OCc3ccc(C4CCCC4)c(C(F)(F)F)c3)cc21 [L-arginine salt of Compound 1]
Lymphocytes, On Treatment Mean [2, 8]: 0.62 10^3/μl | Lymphocytes, Percent Change from Baseline, Mean [2, 8]: −67.34% | Lymphocytes, Percent Change from Baseline, Median [2, 8]: −67.54% | Lymphocytes, Percent Change from Baseline, Min, Max [2, 8]: −77.27 to −57.14% | Lymphocytes, On Treatment Mean [2, 9]: 0.62 10^3/μl | Lymphocytes, Percent Change from Baseline, Mean [2, 9]: −66.16% | Lymphocytes, Percent Change from Baseline, Median [2, 9]: −65.02% | Lymphocytes, Percent Change from Baseline, Min, Max [2, 9]: −85.19 to −53.85% | Lymphocytes, On Treatment Mean ([2]; 0.7 mg for 21 days): 1.06 10^3/μl | Lymphocytes, Percent Change from Baseline, Mean ([2]; 0.7 mg for 21 days): −41.03% | Lymphocytes, Percent Change from Baseline, Median ([2]; 0.7 mg for 21 days): −40.37% | Lymphocytes, Percent Change from Baseline, Min, Max ([2]; 0.7 mg for 21 days): −55.56 to −23.08% | Lymphocytes, On Treatment Mean ([2]; 1.35 mg for 21 days): 0.89 10^3/μl | Lymphocytes, Percent Change from Baseline, Mean ([2]; 1.35 mg for 21 days): −53.43% | Lymphocytes, Percent Change from Baseline, Median ([2]; 1.35 mg for 21 days): −51.85% | Lymphocytes, Percent Change from Baseline, Min, Max ([2]; 1.35 mg for 21 days): −68.75 to −30.77% | Lymphocytes, On Treatment Mean ([2]; 2.0 mg for 21 days): 0.62 10^3/μl | Lymphocytes, Percent Change from Baseline, Mean ([2]; 2.0 mg for 21 days): −68.81% | Lymphocytes, Percent Change from Baseline, Median ([2]; 2.0 mg for 21 days): −69.44% | Lymphocytes, Percent Change from Baseline, Min, Max ([2]; 2.0 mg for 21 days): −80.00 to −55.56% | Lymphocyte lowering, dose dependence ([2]; multiple dose, 0.7 to 3.0 mg): dose-dependent effect on lymphocyte lowering with maximal effect at 2 mg dose | Minimum Value for Post-dose Systolic BP, Change from Baseline, Mean [3, 8]: −13.00 mmHg | Minimum Value for Post-dose Systolic BP, Change from Baseline, Median [3, 8]: −13.00 mmHg | Minimum Value for Post-dose Systolic BP, Change from Baseline, Min, Max [3, 8]: −28.00 to 0.00 mmHg | Minimum Value for Post-dose Systolic BP, On Treatment Mean [3, 8]: 94.30 mmHg | Minimum Value for Post-dose Systolic BP, Change from Baseline, Mean [3, 9]: −7.80 mmHg | Minimum Value for Post-dose Systolic BP, Change from Baseline, Median [3, 9]: −5.00 mmHg | Minimum Value for Post-dose Systolic BP, Change from Baseline, Min, Max [3, 9]: −18.00 to 5.00 mmHg | Minimum Value for Post-dose Systolic BP, On Treatment Mean [3, 9]: 93.20 mmHg | Minimum Value for Post-dose Systolic BP, Change from Baseline, Mean ([3]; 0.7 mg for 21 days): −9.70 mmHg | Minimum Value for Post-dose Systolic BP, Change from Baseline, Median ([3]; 0.7 mg for 21 days): −9.50 mmHg | Minimum Value for Post-dose Systolic BP, Change from Baseline, Min, Max ([3]; 0.7 mg for 21 days): −16.00 to −1.00 mmHg | Minimum Value for Post-dose Systolic BP, On Treatment Mean ([3]; 0.7 mg for 21 days): 96.10 mmHg | Minimum Value for Post-dose Systolic BP, Change from Baseline, Mean ([3]; 1.35 mg for 21 days): −8.90 mmHg | Minimum Value for Post-dose Systolic BP, Change from Baseline, Median ([3]; 1.35 mg for 21 days): −8.00 mmHg | Minimum Value for Post-dose Systolic BP, Change from Baseline, Min, Max ([3]; 1.35 mg for 21 days): −22.00 to 3.00 mmHg | Minimum Value for Post-dose Systolic BP, On Treatment Mean ([3]; 1.35 mg for 21 days): 100.10 mmHg | Minimum Value for Post-dose Systolic BP, Change from Baseline, Mean ([3]; 2.0 mg for 21 days): −9.80 mmHg | Minimum Value for Post-dose Systolic BP, Change from Baseline, Median ([3]; 2.0 mg for 21 days): −9.00 mmHg | Minimum Value for Post-dose Systolic BP, Change from Baseline, Min, Max ([3]; 2.0 mg for 21 days): −18.00 to −4.00 mmHg | Minimum Value for Post-dose Systolic BP, On Treatment Mean ([3]; 2.0 mg for 21 days): 90.80 mmHg | Subjects with mildly abnormal reproducible (NCS) pulmonary function test findings (FEV1 below 80%, FVC) post-dose ([4]; 1.35 mg dose): One | Subjects with mildly abnormal non-clinically significant post-treatment liver function tests (elevated ALT & AST <2× ULN) ([4]; 2mg group): 1 subject | Subjects with new 1st degree atrioventricular block ([4]; 2mg group): 1 subject | Subjects with new 1st degree atrioventricular block ([4]; 0.5, 3 mg group): 1 subject | Subjects with mildly abnormal non-clinically significant post-treatment liver function tests (elevated ALT & AST <2× ULN) ([4]; 0.5 escalating to 3 mg group): 1 subject | Discontinuation due to an adverse event ([4]; multiple dose): No subjects were discontinued due to an adverse event | Most common adverse events ([4]; multiple dose): contact dermatitis and leukopenia, followed by constipation, diarrhea, nausea, and abdominal pain | Ophthalmoscopy findings ([4]; multiple dose): No clinically significant change from baseline | Severity of adverse events ([4]; multiple dose): majority of adverse events were mild | Vital signs, ECGs, PFTs, ophthalmoscopy, clinical laboratory tests ([4]; multiple dose): no other clinically significant safety issues | SAEs or deaths ([4]; multiple dose, all dose levels): No SAEs or deaths | Second degree heart block ([4]; multiple dose, all dose levels): No second degree heart block | Tolerability ([4]; multiple dose, all dose levels (0.7 to 3.0 mg, 21 days)): tolerated at all dose levels; also recorded: well tolerated at all doses tested | Minimum Value for Post-dose Diastolic BP, Change from Baseline, Mean [5, 8]: −7.90 mmHg | Minimum Value for Post-dose Diastolic BP, Change from Baseline, Median [5, 8]: −6.00 mmHg | Minimum Value for Post-dose Diastolic BP, Change from Baseline, Min, Max [5, 8]: −19.00 to −1.00 mmHg | Minimum Value for Post-dose Diastolic BP, On Treatment Mean [5, 8]: 50.80 mmHg | Minimum Value for Post-dose Diastolic BP, Change from Baseline, Mean [5, 9]: −6.30 mmHg | Minimum Value for Post-dose Diastolic BP, Change from Baseline, Median [5, 9]: −7.00 mmHg | Minimum Value for Post-dose Diastolic BP, Change from Baseline, Min, Max [5, 9]: −13.00 to 3.00 mmHg | Minimum Value for Post-dose Diastolic BP, On Treatment Mean [5, 9]: 50.20 mmHg | Minimum Value for Post-dose Diastolic BP, Change from Baseline, Mean ([5]; 0.7 mg for 21 days): −6.10 mmHg | Minimum Value for Post-dose Diastolic BP, Change from Baseline, Median ([5]; 0.7 mg for 21 days): −6.00 mmHg | Minimum Value for Post-dose Diastolic BP, Change from Baseline, Min, Max ([5]; 0.7 mg for 21 days): −16.00 to 2.00 mmHg | Minimum Value for Post-dose Diastolic BP, On Treatment Mean ([5]; 0.7 mg for 21 days): 56.00 mmHg | Minimum Value for Post-dose Diastolic BP, Change from Baseline, Mean ([5]; 1.35 mg for 21 days): −5.20 mmHg | Minimum Value for Post-dose Diastolic BP, Change from Baseline, Median ([5]; 1.35 mg for 21 days): −7.50 mmHg | Minimum Value for Post-dose Diastolic BP, Change from Baseline, Min, Max ([5]; 1.35 mg for 21 days): −11.00 to 6.00 mmHg | Minimum Value for Post-dose Diastolic BP, On Treatment Mean ([5]; 1.35 mg for 21 days): 53.70 mmHg | Minimum Value for Post-dose Diastolic BP, Change from Baseline, Mean ([5]; 2.0 mg for 21 days): −11.20 mmHg | Minimum Value for Post-dose Diastolic BP, Change from Baseline, Median ([5]; 2.0 mg for 21 days): −9.00 mmHg | Minimum Value for Post-dose Diastolic BP, Change from Baseline, Min, Max ([5]; 2.0 mg for 21 days): −21.00 to −4.00 mmHg | Minimum Value for Post-dose Diastolic BP, On Treatment Mean ([5]; 2.0 mg for 21 days): 45.30 mmHg | Minimum Value for Post-dose Heart Rate, Change from Baseline, Mean [6, 8]: −10.60 BPM | Minimum Value for Post-dose Heart Rate, Change from Baseline, Median [6, 8]: −7.00 BPM | Minimum Value for Post-dose Heart Rate, Change from Baseline, Min, Max [6, 8]: −35.00 to 3.00 BPM | Minimum Value for Post-dose Heart Rate, On Treatment Mean [6, 8]: 52.00 BPM | Minimum Value for Post-dose Heart Rate, Change from Baseline, Mean [6, 9]: −7.30 BPM | Minimum Value for Post-dose Heart Rate, Change from Baseline, Median [6, 9]: −6.50 BPM | Minimum Value for Post-dose Heart Rate, Change from Baseline, Min, Max [6, 9]: −14.00 to −2.00 BPM | Minimum Value for Post-dose Heart Rate, On Treatment Mean [6, 9]: 53.80 BPM | Minimum Value for Post-dose Heart Rate, Change from Baseline, Mean ([6]; 0.7 mg for 21 days): −5.50 BPM | Minimum Value for Post-dose Heart Rate, Change from Baseline, Median ([6]; 0.7 mg for 21 days): −5.00 BPM | Minimum Value for Post-dose Heart Rate, Change from Baseline, Min, Max ([6]; 0.7 mg for 21 days): −12.00 to −1.00 BPM | Minimum Value for Post-dose Heart Rate, On Treatment Mean ([6]; 0.7 mg for 21 days): 54.20 BPM | Minimum Value for Post-dose Heart Rate, Change from Baseline, Mean ([6]; 1.35 mg for 21 days): −6.20 BPM | Minimum Value for Post-dose Heart Rate, Change from Baseline, Median ([6]; 1.35 mg for 21 days): −5.00 BPM | Minimum Value for Post-dose Heart Rate, Change from Baseline, Min, Max ([6]; 1.35 mg for 21 days): −18.00 to 3.00 BPM | Minimum Value for Post-dose Heart Rate, On Treatment Mean ([6]; 1.35 mg for 21 days): 54.40 BPM | Minimum Value for Post-dose Heart Rate, Change from Baseline, Mean ([6]; 2.0 mg for 21 days): −8.30 BPM | Minimum Value for Post-dose Heart Rate, Change from Baseline, Median ([6]; 2.0 mg for 21 days): −7.50 BPM | Minimum Value for Post-dose Heart Rate, Change from Baseline, Min, Max ([6]; 2.0 mg for 21 days): −16.00 to −3.00 BPM | Minimum Value for Post-dose Heart Rate, On Treatment Mean ([6]; 2.0 mg for 21 days): 51.00 BPM | Maximum Value for Post-dose QTc, Change from Baseline, Mean [7, 8]: −0.10 MS | Maximum Value for Post-dose QTc, Change from Baseline, Median [7, 8]: 0.50 MS | Maximum Value for Post-dose QTc, Change from Baseline, Min, Max [7, 8]: −19.00 to 17.00 MS | Maximum Value for Post-dose QTc, On Treatment Mean [7, 8]: 411.10 MS | Maximum Value for Post-dose QTc, Change from Baseline, Mean [7, 9]: 5.60 MS | Maximum Value for Post-dose QTc, Change from Baseline, Median [7, 9]: 5.00 MS | Maximum Value for Post-dose QTc, Change from Baseline, Min, Max [7, 9]: −5.00 to 15.00 MS | Maximum Value for Post-dose QTc, On Treatment Mean [7, 9]: 425.10 MS | Maximum Value for Post-dose QTc, Change from Baseline, Mean ([7]; 0.7 mg for 21 days): 3.60 MS | Maximum Value for Post-dose QTc, Change from Baseline, Median ([7]; 0.7 mg for 21 days): 3.50 MS | Maximum Value for Post-dose QTc, Change from Baseline, Min, Max ([7]; 0.7 mg for 21 days): −8.00 to 16.00 MS | Maximum Value for Post-dose QTc, On Treatment Mean ([7]; 0.7 mg for 21 days): 418.40 MS | Maximum Value for Post-dose QTc, Change from Baseline, Mean ([7]; 1.35 mg for 21 days): 8.20 MS | Maximum Value for Post-dose QTc, Change from Baseline, Median ([7]; 1.35 mg for 21 days): 6.00 MS | Maximum Value for Post-dose QTc, Change from Baseline, Min, Max ([7]; 1.35 mg for 21 days): −5.00 to 25.00 MS | Maximum Value for Post-dose QTc, On Treatment Mean ([7]; 1.35 mg for 21 days): 423.60 MS | Maximum Value for Post-dose QTc, Change from Baseline, Mean ([7]; 2.0 mg for 21 days): 4.00 MS | Maximum Value for Post-dose QTc, Change from Baseline, Median ([7]; 2.0 mg for 21 days): 4.50 MS | Maximum Value for Post-dose QTc, Change from Baseline, Min, Max ([7]; 2.0 mg for 21 days): −8.00 to 13.00 MS | Maximum Value for Post-dose QTc, On Treatment Mean ([7]; 2.0 mg for 21 days): 421.20 MS
